Measurements: US7803375B2, “Methods and compositions for treating conditions of the eye” (Massachusetts Eye and Ear Infirmary, priority 2005, dated 2010)

Assays:
[1] = typical; cited from earlier work
Fas receptor = assay: Retinal levels of Fas receptor after verteporfin PDT; assay type: in vivo; details: rat retina, FIG. 3

Molecule | persistence in the target neovasculature [1] | retinal levels of the apoptotic death receptor Fas (Fas receptor)
C=Cc1c(C)c2cc3nc(c(CC(=O)N[C@@H](CC(=O)O)C(=O)O)c4[nH]c(cc5nc(cc1[nH]2)C(C)=C5CC)c(C)c4C(=O)O)[C@@H](CCC(=O)O)[C@@H]3C [N-aspartyl chlorin e6] | about twenty | 
verteporfin |  | increases
CC(=O)[O-].CC(=O)[O-].CCc1c(CC)c2cc3nc(cnc4cc(OCCOCCOCCOC)c(OCCOCCOCCOC)cc4ncc4nc(cc1[n-]2)C(CCCO)=C4C)C(C)=C3CCCO.O.[Lu+3] [lutetium texaphyrin] | about twenty | 
benzoporphyrin derivative | about fifty | 
O=C([O-])c1c(Cl)c(Cl)c(Cl)c(Cl)c1-c1c2cc(I)c(=O)c(I)c-2oc2c(I)c([O-])c(I)cc12.[Na+].[Na+] [rose bengal] | about ten | 
